Values of other authors, collected in patent publication US6436417B1, “Acne treatment compositions” (Blistex Inc., priority 2001, dated 2002).

Columns and labels:
[1] = not given; remark: listed apart in the source
[2] = in sunlight and in the presence of ferric salts

In the case of `O=C(O)c1ccccc1O` [Salicylic acid, salicylic acid], the “pH of the aqueous solution” value (1 gram in about 460 ml of water at room temperature) is given as 2.4, the “solubility in water (volume of water dissolving 1 gram)” value (1 gram, water, room temperature) is given as “about 460 ml” and the solubility in water (water, room temperature) is given as “about 0.2 % by weight”. For the same compound, the “solubility in alcohol (volume of alcohol dissolving 1 gram)” value [1] was “about 2.7 ml” and the stability to discoloration [2] was “strong tendency to discolor”.
